From article PMC12207908, “The broad‐spectrum antimicrobial peptide BMAP‐27B potentiates carbapenems against NDM‐producing pathogens in food animals” (mLife, 2025)
In brackets after ≈: the same amount, converted by molar mass.

Tests used:
Assay in all cases: MIC, broth microdilution
Format in all cases: cell-based
CRAB1 = conditions: Acinetobacter baumannii, MHB, 1 × 10^6 CFU/ml, 16–18 h, 37°C, independent triplicates
Method: (§1) The MIC of BMAP‐27B and other antibiotics was determined using the broth microdilution method, following the guidelines established by the Clinical and Laboratory Standards Institute (CLSI). Briefly, the bacterial cultures were grown to the logarithmic growth phase and subsequently diluted in Mueller–Hinton broth (MHB) to achieve a final concentration of 1 × 10^6 CFU/ml. BMAP‐27B and the other antibiotics were prepared in twofold serial dilutions in MHB and mixed with an equal volume of bacterial suspension in 96‐well polypropylene microtiter plates.

CRAB2 = conditions: Acinetobacter baumannii, MHB, 1 × 10^6 CFU/ml, 16–18 h, 37°C, independent triplicates
Method: as §1

CRCB1 = conditions: Citrobacter, MHB, 1 × 10^6 CFU/ml, 16–18 h, 37°C, independent triplicates
Method: as §1

CRCB3 = conditions: Citrobacter, MHB, 1 × 10^6 CFU/ml, 16–18 h, 37°C, independent triplicates
Method: as §1

CREC1 = conditions: Escherichia coli, MHB, 1 × 10^6 CFU/ml, 16–18 h, 37°C, independent triplicates
Method: as §1

CREC2 = conditions: Escherichia coli, MHB, 1 × 10^6 CFU/ml, 16–18 h, 37°C, independent triplicates
Method: as §1

CREC3 = conditions: Escherichia coli, MHB, 1 × 10^6 CFU/ml, 16–18 h, 37°C, independent triplicates
Method: as §1

CREC4 = conditions: Escherichia coli, MHB, 1 × 10^6 CFU/ml, 16–18 h, 37°C, independent triplicates
Method: as §1

CREC6 = conditions: Escherichia coli, MHB, 1 × 10^6 CFU/ml, 16–18 h, 37°C, independent triplicates
Method: as §1

CREC7 = conditions: Escherichia coli, MHB, 1 × 10^6 CFU/ml, 16–18 h, 37°C, independent triplicates
Method: as §1

[1] = system: En. faecium (Clinical; MDR; pig, faeces), upper row; conditions: Enterococcus faecium, En. faecium clinical MDR isolate, MHB, 16–18 h, 37°C, independent triplicates
Method: as §1

P. aeruginosa UCBPP-PA01 = conditions: Pseudomonas aeruginosa, UCBPPPA01, MHB, 1 × 10^6 CFU/ml, 16–18 h, 37°C, independent triplicates
Method: as §1

PREC1 = conditions: Escherichia coli, MHB, 1 × 10^6 CFU/ml, 16–18 h, 37°C, independent triplicates
Method: as §1

PREC2 = conditions: Escherichia coli, MHB, 1 × 10^6 CFU/ml, 16–18 h, 37°C, independent triplicates
Method: as §1

PREC3 = conditions: Escherichia coli, MHB, 1 × 10^6 CFU/ml, 16–18 h, 37°C, independent triplicates
Method: as §1

S. aureus ATCC = conditions: Staphylococcus aureus, MHB, 1 × 10^6 CFU/ml, 16–18 h, 37°C, independent triplicates
Method: as §1

CRCB2 = conditions: Citrobacter, MHB, 1 × 10^6 CFU/ml, 16–18 h, 37°C, independent triplicates
Method: as §1

CREC5 = conditions: Escherichia coli, MHB, 1 × 10^6 CFU/ml, 16–18 h, 37°C, independent triplicates
Method: as §1

CRKP1 = conditions: Klebsiella pneumoniae, MHB, 1 × 10^6 CFU/ml, 16–18 h, 37°C, independent triplicates
Method: as §1

CRKP2 = conditions: Klebsiella pneumoniae, MHB, 1 × 10^6 CFU/ml, 16–18 h, 37°C, independent triplicates
Method: as §1

CRKP3 = conditions: Klebsiella pneumoniae, MHB, 1 × 10^6 CFU/ml, 16–18 h, 37°C, independent triplicates
Method: as §1

CRKP4 = conditions: Klebsiella pneumoniae, MHB, 1 × 10^6 CFU/ml, 16–18 h, 37°C, independent triplicates
Method: as §1

CRKP5 = conditions: Klebsiella pneumoniae, MHB, 1 × 10^6 CFU/ml, 16–18 h, 37°C, independent triplicates
Method: as §1

CRKP6 = conditions: Klebsiella pneumoniae, MHB, 1 × 10^6 CFU/ml, 16–18 h, 37°C, independent triplicates
Method: as §1

[2] = system: En. faecium (Clinical; MDR; pig, faeces), lower row; conditions: Enterococcus faecium, En. faecium clinical MDR isolate, MHB, 16–18 h, 37°C, independent triplicates
Method: as §1

P. aeruginosa UCBPP-PA14 = conditions: Pseudomonas aeruginosa, MHB, 1 × 10^6 CFU/ml, 16–18 h, 37°C, independent triplicates
Method: as §1

PRCB1 = conditions: Citrobacter, MHB, 1 × 10^6 CFU/ml, 16–18 h, 37°C, independent triplicates
Method: as §1

Salmonella SL1344 = conditions: MHB, 1 × 10^6 CFU/ml, 16–18 h, 37°C, independent triplicates
Method: as §1

`NCC[C@H](O)C(=O)N[C@@H]1C[C@H](N)[C@@H](O[C@H]2O[C@H](CN)[C@@H](O)[C@H](O)[C@H]2O)[C@H](O)[C@H]1O[C@H]1O[C@H](CO)[C@@H](O)[C@H](N)[C@H]1O` [AMK, amikacin] showed an MIC (CRAB1) of over 32 µg/mL, an MIC (CRAB2) of over 32 µg/mL and an MIC (CRCB1) of 4 µg/mL (≈ 6.83 µM). It also gave an MIC (CRCB3) of 8 µg/mL (≈ 13.7 µM), an MIC (CREC1) of 2 µg/mL (≈ 3.42 µM) and an MIC (CREC2) of 4 µg/mL (≈ 6.83 µM). The MIC (CREC3) was 2 µg/mL (≈ 3.42 µM), the MIC (CREC4) was 4 µg/mL (≈ 6.83 µM) and the MIC (CREC6) was 16 µg/mL (≈ 27.3 µM). It also gave an MIC (CREC7) of 2 µg/mL (≈ 3.42 µM), an MIC [1] of 16 µg/mL (≈ 27.3 µM) and an MIC (P. aeruginosa UCBPP-PA01) of 2 µg/mL (≈ 3.42 µM). The MIC (PREC1) was 2 µg/mL (≈ 3.42 µM), the MIC (PREC2) was 8 µg/mL (≈ 13.7 µM) and the MIC (PREC3) was 2 µg/mL (≈ 3.42 µM). The MIC (S. aureus ATCC) was 8 µg/mL (≈ 13.7 µM).
For `CC1(C)S[C@@H]2[C@H](NC(=O)[C@H](N)c3ccccc3)C(=O)N2[C@H]1C(=O)O` [AMP, ampicillin], the MIC (CRAB1) was over 32 µg/mL, the MIC (CRAB2) was over 32 µg/mL and the MIC (CRCB1) was over 32 µg/mL. For the same compound, the MIC (CRCB2) was over 32 µg/mL, the MIC (CRCB3) was over 32 µg/mL and the MIC (CREC1) was over 32 µg/mL. For the same compound, the MIC (CREC2) was over 32 µg/mL, the MIC (CREC3) was over 32 µg/mL and the MIC (CREC4) was over 32 µg/mL. The MIC (CREC5) was over 32 µg/mL, the MIC (CREC6) was over 32 µg/mL and the MIC (CREC7) was over 32 µg/mL. For the same compound, the MIC (CRKP1) was over 32 µg/mL, the MIC (CRKP2) was over 32 µg/mL and the MIC (CRKP3) was over 32 µg/mL. For the same compound, the MIC (CRKP4) was over 32 µg/mL, the MIC (CRKP5) was over 32 µg/mL and the MIC (CRKP6) was over 32 µg/mL. The MIC [2] was over 32 µg/mL, the MIC [1] was 32 µg/mL (≈ 91.6 µM) and the MIC (P. aeruginosa UCBPP-PA01) was over 32 µg/mL. For the same compound, the MIC (P. aeruginosa UCBPP-PA14) was over 32 µg/mL, the MIC (PRCB1) was over 32 µg/mL and the MIC (PREC1) was over 32 µg/mL. The MIC (PREC2) was over 32 µg/mL, the MIC (PREC3) was over 32 µg/mL and the MIC (S. aureus ATCC) was 4 µg/mL (≈ 11.4 µM). The MIC (Salmonella SL1344) was 8 µg/mL (≈ 22.9 µM).
Compound `CC(C)(O/N=C(\C(=O)N[C@@H]1C(=O)N2C(C(=O)[O-])=C(C[n+]3ccccc3)CS[C@H]12)c1csc(N)n1)C(=O)O` [CAZ, ceftazidime] has an MIC (CRAB1) of over 32 µg/mL, an MIC (CRAB2) of over 32 µg/mL and an MIC (CRCB1) of over 32 µg/mL. For the same compound, the MIC (CRCB2) was over 32 µg/mL, the MIC (CRCB3) was over 32 µg/mL and the MIC (CREC1) was over 32 µg/mL. The MIC (CREC2) was over 32 µg/mL, the MIC (CREC3) was over 32 µg/mL and the MIC (CREC4) was over 32 µg/mL. The MIC (CREC5) was over 32 µg/mL, the MIC (CREC6) was over 32 µg/mL and the MIC (CREC7) was over 32 µg/mL. It also gave an MIC (CRKP1) of over 32 µg/mL, an MIC (CRKP2) of over 32 µg/mL and an MIC (CRKP3) of over 32 µg/mL. It also gave an MIC (CRKP4) of over 32 µg/mL, an MIC (CRKP5) of over 32 µg/mL and an MIC (CRKP6) of over 32 µg/mL. It also gave an MIC [2] of over 32 µg/mL, an MIC [1] of over 32 µg/mL and an MIC (P. aeruginosa UCBPP-PA01) of 2 µg/mL (≈ 3.66 µM). It also gave an MIC (P. aeruginosa UCBPP-PA14) of 2 µg/mL (≈ 3.66 µM), an MIC (PRCB1) of over 32 µg/mL and an MIC (PREC1) of over 32 µg/mL. For the same compound, the MIC (PREC2) was over 32 µg/mL, the MIC (PREC3) was 16 µg/mL (≈ 29.3 µM) and the MIC (S. aureus ATCC) was 4 µg/mL (≈ 7.32 µM). The MIC (Salmonella SL1344) was under 1 µg/mL.
